Here are results for 19 compounds from PubChem BioAssay AID256 (DTP/NCI, 2004).

The structures appear in SMILES notation. Where “and” joins values, the source holds several entries; their conditions need not be identical. Equal values may be shown once. Inconclusive results and toxic doses are left out.

This assay concerns CD2F1 mice, L1210 leukemia ip, survival T/C. Nature of the assay: NCI In Vivo Anticancer Drug Screen. Data for tumor model L1210 Leukemia (intraperitoneal) in CD2F1 (CDF1) mice. As to conditions: higher = longer survival. The procedure, abridged: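 Vehicle-treated tumor-bearing mice served as controls (C) for compound-treated mice (T). Reported figure is T divided by C.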
[1] abbreviates: endpoint: mean survival time, dose: 100.0 mg/kg/injection, schedule: Q04DX003 (ip), vehicle: saline with Tween-80.
Where [2] appears, read: endpoint: mean survival time, dose: 200.0 mg/kg/injection, schedule: Q04DX003 (ip), vehicle: saline with Tween-80.
The mark [3] stands for this setting: endpoint: mean survival time, dose: 400.0 mg/kg/injection, schedule: Q04DX003 (ip), vehicle: saline with Tween-80.
Where [4] appears, read: endpoint: mean survival time, dose: 100.0 mg/kg/injection, schedule: Q01DX009 (ip), vehicle: saline with Tween-80.
Where [5] appears, read: endpoint: mean survival time, dose: 200.0 mg/kg/injection, schedule: Q01DX009 (ip), vehicle: saline with Tween-80.
Setting [6] is: endpoint: mean survival time, dose: 400.0 mg/kg/injection, schedule: Q01DX009 (ip), vehicle: saline with Tween-80.

`O=C(CNC(=O)OCc1ccccc1)NCC(=O)NC(CO)C(=O)O` (stereo not drawn): the T/C was 95 % of control under setting [1], 104 % of control under setting [2] and 96 % of control under setting [3].
As to `O[C@H](CN1CC1)[C@@H](O)CN1CC1`, the T/C is 150 % of control (endpoint: mean survival time, dose: 0.25 mg/kg/injection, schedule: Q01DX007 (ip), vehicle: saline); 170 % of control and 177 % of control and 178 % of control (endpoint: mean survival time, dose: 0.25 mg/kg/injection, schedule: Q01DX009 (ip), vehicle: saline); 192 % of control (endpoint: mean survival time, dose: 0.5 mg/kg/injection, schedule: Q01DX007 (ip), vehicle: saline); 165 % of control and 197 % of control and 205 % of control (endpoint: mean survival time, dose: 0.5 mg/kg/injection, schedule: Q01DX009 (ip), vehicle: saline); 166 % of control (endpoint: mean survival time, dose: 0.5 mg/kg/injection, schedule: Q03DX003 (ip), vehicle: saline); 164 % of control (endpoint: mean survival time, dose: 0.5 mg/kg/injection, schedule: Q04DX003 (ip), vehicle: saline). In addition, the T/C was 94 % of control (endpoint: mean survival time, dose: 1.0 mg/kg/injection, schedule: Q01DX007 (ip), vehicle: saline); 116 % of control and 95 % of control (endpoint: mean survival time, dose: 1.0 mg/kg/injection, schedule: Q01DX009 (ip), vehicle: saline); 202 % of control (endpoint: mean survival time, dose: 1.0 mg/kg/injection, schedule: Q03DX003 (ip), vehicle: saline); 184 % of control (endpoint: mean survival time, dose: 1.0 mg/kg/injection, schedule: Q04DX003 (ip), vehicle: saline).
In the case of `C=C(C)C1(Cc2ccccc2)C(=O)NC(=O)NC1=O`, the T/C is 100 % of control (endpoint: mean survival time, dose: 5.0 mg/kg/injection, schedule: Q01DX001 (ip), vehicle: saline); 97 % of control (endpoint: mean survival time, dose: 10.0 mg/kg/injection, schedule: Q01DX001 (ip), vehicle: saline); 100 % of control (endpoint: mean survival time, dose: 20.0 mg/kg/injection, schedule: Q01DX001 (ip), vehicle: saline); 102 % of control (endpoint: mean survival time, dose: 40.0 mg/kg/injection, schedule: Q01DX001 (ip), vehicle: saline).
With `CCCCCCCCC(=O)O`, the T/C runs as follows: under setting [1], 100 % of control; under setting [2], 100 % of control; under setting [3], 102 % of control.
On to `O=C1CCn2c3ccccc3c3cccc1c32`, for which the T/C reads like this: under setting [4], 101 % of control; under setting [5], 101 % of control; under setting [6], 96 % of control.
With `O=C(/C=C/c1ccccc1)c1cccc([N+](=O)[O-])c1`, the T/C by setting is: (endpoint: mean survival time, dose: 100.0 mg/kg/injection, schedule: Q04DX002 (ip), vehicle: saline with Tween-80) 91 % of control; (endpoint: mean survival time, dose: 200.0 mg/kg/injection, schedule: Q04DX002 (ip), vehicle: saline with Tween-80) 91 % of control; (endpoint: mean survival time, dose: 400.0 mg/kg/injection, schedule: Q04DX002 (ip), vehicle: saline with Tween-80) 95 % of control.
Take `O=[N+]([O-])c1ccc(N2CCCCC2)c([N+](=O)[O-])c1`: the T/C is, setting by setting: under setting [4], 96 % of control; under setting [5], 98 % of control; under setting [6], 95 % of control.
On to `CCCCCCCC(=O)Nc1ccc(CC)cc1`, for which the T/C runs as follows: under setting [4], 107 % of control; under setting [1], 95 % of control; under setting [5], 105 % of control; under setting [2], 103 % of control; under setting [6], 107 % of control; under setting [3], 93 % of control.
`CCOC(=O)c1cc(-c2ccccc2)nc2c(Cl)cc(Cl)cc12`: the T/C by setting is: (endpoint: mean survival time, dose: 100.0 mg/kg/injection, schedule: Q01DX001 (ip), vehicle: saline) 94 % of control; (endpoint: mean survival time, dose: 200.0 mg/kg/injection, schedule: Q01DX001 (ip), vehicle: saline) 90 % of control; (endpoint: mean survival time, dose: 400.0 mg/kg/injection, schedule: Q01DX001 (ip), vehicle: saline) 96 % of control.
Take `O=S(=O)(O)C1CCC(O)C2[N-]CCCC21.O=S(=O)(O)C1CCC(O)C2[N-]CCCC21.[Zn+2]` (stereo not drawn): the T/C was 95 % of control under setting [4]; 96 % of control under setting [1]; 93 % of control under setting [2]; 86 % of control under setting [6]; 96 % of control under setting [3].
Turning to `Nc1nc(N)c(N=Nc2ccc(S(=O)(=O)O)cc2)c(N)n1`, the T/C reads like this: under setting [4], 94 % of control; under setting [5], 94 % of control; under setting [6], 98 % of control.
With `O=Cc1[nH]c(=S)[nH]c(=O)c1CCCc1ccccc1`, the T/C (endpoint: mean survival time, dose: 25.0 mg/kg/injection, schedule: Q04DX002 (ip), vehicle: Klucel (hydroxypropylcellulose) (HPC)) is 96 % of control; the T/C (endpoint: mean survival time, dose: 50.0 mg/kg/injection, schedule: Q04DX002 (ip), vehicle: Klucel (hydroxypropylcellulose) (HPC)) was 104 % of control; the T/C (endpoint: mean survival time, dose: 100.0 mg/kg/injection, schedule: Q04DX002 (ip), vehicle: Klucel (hydroxypropylcellulose) (HPC)) is 93 % of control; the T/C (endpoint: mean survival time, dose: 200.0 mg/kg/injection, schedule: Q04DX002 (ip), vehicle: Klucel (hydroxypropylcellulose) (HPC)) was 94 % of control; the T/C (endpoint: mean survival time, dose: 400.0 mg/kg/injection, schedule: Q04DX002 (ip), vehicle: Klucel (hydroxypropylcellulose) (HPC)) is 90 % of control.
As for `CCOC(=O)c1c(Cl)nc2ccccc2c1Cl`, the T/C (endpoint: mean survival time, dose: 50.0 mg/kg/injection, schedule: Q01DX009 (ip), vehicle: saline with Tween-80) was 105 % of control; the T/C under setting [4] was 105 % of control; the T/C under setting [5] was 94 % of control.
On to `CC(C)/C(=N\Nc1ccc([N+](=O)[O-])cc1[N+](=O)[O-])c1ccccc1`, for which the T/C by setting is: under setting [4], 97 % of control; under setting [5], 101 % of control; under setting [6], 103 % of control.
Consider `CN(C)CCN1C(=O)c2cccc3cc([N+](=O)[O-])cc(c23)C1=O`, for which the T/C runs as follows: (endpoint: mean survival time, dose: 0.75 mg/kg/injection, schedule: Q01DX009 (ip), vehicle: saline with Tween-80) 100 % of control and 106 % of control; (endpoint: mean survival time, dose: 1.5 mg/kg/injection, schedule: Q01DX009 (ip), vehicle: saline with Tween-80) 115 % of control and 107 % of control; (endpoint: mean survival time, dose: 1.5 mg/kg/injection, schedule: Q01DX009 (ip), vehicle: saline) 102 % of control; (endpoint: mean survival time, dose: 3.0 mg/kg/injection, schedule: Q01DX009 (ip), vehicle: saline with Tween-80) 113 % of control; (endpoint: mean survival time, dose: 3.0 mg/kg/injection, schedule: Q01DX009 (ip), vehicle: saline) 107 % of control; (endpoint: mean survival time, dose: 6.0 mg/kg/injection, schedule: Q01DX009 (ip), vehicle: saline) 109 % of control. Further, the T/C is 120 % of control (endpoint: mean survival time, dose: 12.0 mg/kg/injection, schedule: Q01DX009 (ip), vehicle: saline with Tween-80); 117 % of control (endpoint: mean survival time, dose: 12.0 mg/kg/injection, schedule: Q01DX009 (ip), vehicle: saline); 100 % of control (endpoint: median survival time, dose: 0.37 mg/kg/injection, schedule: Q01DX009 (ip), vehicle: saline with Tween-80); 95 % of control and 105 % of control (endpoint: median survival time, dose: 0.75 mg/kg/injection, schedule: Q01DX009 (ip), vehicle: saline with Tween-80); 116 % of control and 98 % of control (endpoint: median survival time, dose: 1.5 mg/kg/injection, schedule: Q01DX009 (ip), vehicle: saline with Tween-80); 104 % of control and 110 % of control (endpoint: median survival time, dose: 3.0 mg/kg/injection, schedule: Q01DX009 (ip), vehicle: saline with Tween-80). The T/C (endpoint: median survival time, dose: 6.0 mg/kg/injection, schedule: Q01DX009 (ip), vehicle: saline with Tween-80) is 122 % of control and the T/C (endpoint: median survival time, dose: 12.0 mg/kg/injection, schedule: Q01DX009 (ip), vehicle: saline with Tween-80) was 122 % of control.
On to `O=C(NC(O)C(Cl)(Cl)Cl)C(Cl)(Cl)Cl` (stereo not drawn), for which the T/C was 89 % of control under setting [4]; 104 % of control under setting [1]; 100 % of control under setting [5]; 105 % of control under setting [2]; 107 % of control under setting [6]; 104 % of control under setting [3].
As to `CCN(CC)CCN1C(=O)c2cccc3cccc(c23)C1=O`, the T/C is, setting by setting: (endpoint: mean survival time, dose: 25.0 mg/kg/injection, schedule: Q04DX003 (ip), vehicle: saline) 102 % of control; (endpoint: mean survival time, dose: 50.0 mg/kg/injection, schedule: Q04DX003 (ip), vehicle: saline) 98 % of control; (endpoint: mean survival time, dose: 100.0 mg/kg/injection, schedule: Q04DX003 (ip), vehicle: saline) 102 % of control.
Take `CC[N+](CC)(CC)Cc1ccccc1`: the T/C reads like this: (endpoint: mean survival time, dose: 10.0 mg/kg/injection, schedule: Q04DX003 (ip), vehicle: saline with Tween-80) 105 % of control; (endpoint: mean survival time, dose: 20.0 mg/kg/injection, schedule: Q04DX003 (ip), vehicle: saline with Tween-80) 94 % of control; (endpoint: mean survival time, dose: 40.0 mg/kg/injection, schedule: Q04DX003 (ip), vehicle: saline with Tween-80) 98 % of control.
Consider `O=C(NNC(=O)c1cccc(C(=O)NNC(=O)c2ccc(Cl)c(Cl)c2)n1)c1ccc(Cl)c(Cl)c1`, for which the T/C runs as follows: (endpoint: median survival time, dose: 43.2 mg/kg/injection, schedule: Q01DX005 (ip), vehicle: Klucel (hydroxypropylcellulose) (HPC)) 110 % of control; (endpoint: median survival time, dose: 72.0 mg/kg/injection, schedule: Q01DX005 (ip), vehicle: Klucel (hydroxypropylcellulose) (HPC)) 115 % of control; (endpoint: median survival time, dose: 120.0 mg/kg/injection, schedule: Q01DX005 (ip), vehicle: Klucel (hydroxypropylcellulose) (HPC)) 115 % of control and 116 % of control; (endpoint: median survival time, dose: 200.0 mg/kg/injection, schedule: Q01DX005 (ip), vehicle: Klucel (hydroxypropylcellulose) (HPC)) 120 % of control and 86 % of control; (endpoint: median survival time, dose: 333.33 mg/kg/injection, schedule: Q01DX005 (ip), vehicle: Klucel (hydroxypropylcellulose) (HPC)) 92 % of control.
